From ChEMBL document CHEMBL3885861, “Open TG-GATES”

Organism: Rattus norvegicus
Assay: Open TG-GATES - Regimen: Daily Repeat
Type: toxicity, organism-based, Sprague-Dawley
Set-up: regimen Daily Repeat, gender Male, age 6 weeks
Settings: in vivo, po, 0 mg/kg, route gavage, dose level Control; for APTT / Bas / Eos / Fbg / Ht / Lym / MCH / MCHC / MCV / Mono / Neu / PT / Plat / RBC / Ret / WBC: tissue Blood; for KIDNEY_L / KIDNEY_R / KIDNEY_TOTAL: tissue Kidney; for LIVER: tissue Liver; for ALP / ALT / AST / BUN / CRE / Ca / Cl / DBIL / GLC / IP / K / LDH / Na / PL / RALB / TBIL / TC / TG / TP / gamma-GTP: tissue Plasma

`Cc1cccc(Nc2cc(Cl)nc(SCC(=O)O)n2)c1C` [PIRINIXIC ACID] showed a TERMINAL_BW (72 h, time 3 day) of 233.5 g, an APTT (72 h, time 3 day) of 16.4 s and a Bas (72 h, time 3 day) of 0%. For the same compound, the Eos (72 h, time 3 day) was 1.2%, the Fbg (72 h, time 3 day) was 285 mg/dL and the Ht (72 h, time 3 day) was 39.4%. The Lym (72 h, time 3 day) was 75.2%, the MCH (72 h, time 3 day) was 22.2 pg and the MCHC (72 h, time 3 day) was 34.4%. For the same compound, the MCV (72 h, time 3 day) was 64.7 fL, the Mono (72 h, time 3 day) was 2.8% and the Neu (72 h, time 3 day) was 20.2%. For the same compound, the PT (72 h, time 3 day) was 12.3 s, the Plat (72 h, time 3 day) was 109.1 x10_4/uL and the RBC (72 h, time 3 day) was 609.4 x10_4/ul. The Ret (72 h, time 3 day) was 7%, the WBC (72 h, time 3 day) was 85.4 x10_2/uL and the KIDNEY_L (72 h, time 3 day) was 1 g. For the same compound, the KIDNEY_R (72 h, time 3 day) was 1 g, the KIDNEY_TOTAL (72 h, time 3 day) was 1.9 g and the LIVER (72 h, time 3 day) was 10.9 g. For the same compound, the ALP (72 h, time 3 day) was 1563.4 IU/L, the ALT (72 h, time 3 day) was 50 IU/L and the AST (72 h, time 3 day) was 77 IU/L. For the same compound, the BUN (72 h, time 3 day) was 15.8 mg/dL, the CRE (72 h, time 3 day) was 0.2 mg/dL and the Ca (72 h, time 3 day) was 10.8 mg/dL. For the same compound, the Cl (72 h, time 3 day) was 105.4 meq/L, the DBIL (72 h, time 3 day) was 0.024 mg/dL and the GLC (72 h, time 3 day) was 201.2 mg/dL. The IP (72 h, time 3 day) was 8.2 mg/dL, the K (72 h, time 3 day) was 3.8 meq/L and the LDH (72 h, time 3 day) was 80.4 IU/L. The Na (72 h, time 3 day) was 143 meq/L, the PL (72 h, time 3 day) was 155 mg/dL and the RALB (72 h, time 3 day) was 2.6 g/dL. It also gave a TBIL (72 h, time 3 day) of 0.032 mg/dL, a TC (72 h, time 3 day) of 79.6 mg/dL and a TG (72 h, time 3 day) of 92.8 mg/dL. The TP (72 h, time 3 day) was 5.5 g/dL, the gamma-GTP (72 h, time 3 day) was 1.6 IU/L and the TERMINAL_BW ([…], time 7 day) was 265.8 g. The TERMINAL_BW ([…], time 14 day) was 320.3 g, the TERMINAL_BW ([…], time 28 day) was 387.5 g and the APTT ([…], time 7 day) was 16.6 s. The Bas ([…], time 7 day) was 0%, the Eos ([…], time 7 day) was 0.4% and the Fbg ([…], time 7 day) was 312.6 mg/dL. The Ht ([…], time 7 day) was 40.4%, the Lym ([…], time 7 day) was 83.4% and the MCH ([…], time 7 day) was 21.7 pg. It also gave an MCHC ([…], time 7 day) of 34.7%, an MCV ([…], time 7 day) of 62.3 fL and a Mono ([…], time 7 day) of 2.2%. It also gave a Neu ([…], time 7 day) of 13.8%, a PT ([…], time 7 day) of 12.3 s and a Plat ([…], time 7 day) of 127.6 x10_4/uL. The RBC ([…], time 7 day) was 648.6 x10_4/ul, the Ret ([…], time 7 day) was 5.5% and the WBC ([…], time 7 day) was 89.6 x10_2/uL. For the same compound, the APTT ([…], time 14 day) was 15.5 s, the Bas ([…], time 14 day) was 0% and the Eos ([…], time 14 day) was 0.8%. For the same compound, the Fbg ([…], time 14 day) was 324.2 mg/dL, the Ht ([…], time 14 day) was 41.1% and the Lym ([…], time 14 day) was 77.6%. It also gave an MCH ([…], time 14 day) of 20.2 pg, an MCHC ([…], time 14 day) of 35.2% and an MCV ([…], time 14 day) of 57.3 fL. It also gave a Mono ([…], time 14 day) of 2.4%, a Neu ([…], time 14 day) of 18.6% and a PT ([…], time 14 day) of 12.4 s. It also gave a Plat ([…], time 14 day) of 119.6 x10_4/uL, an RBC ([…], time 14 day) of 716.8 x10_4/ul and a Ret ([…], time 14 day) of 4.1%. For the same compound, the WBC ([…], time 14 day) was 101.8 x10_2/uL, the APTT ([…], time 28 day) was 17.7 s and the Bas ([…], time 28 day) was 0%. The Eos ([…], time 28 day) was 1.2%, the Fbg ([…], time 28 day) was 284.6 mg/dL and the Ht ([…], time 28 day) was 44.2%. It also gave a Lym ([…], time 28 day) of 75%, an MCH ([…], time 28 day) of 19.8 pg and an MCHC ([…], time 28 day) of 35.6%. For the same compound, the MCV ([…], time 28 day) was 55.5 fL, the Mono ([…], time 28 day) was 2.4% and the Neu ([…], time 28 day) was 20.6%. For the same compound, the PT ([…], time 28 day) was 12.3 s, the Plat ([…], time 28 day) was 100.6 x10_4/uL and the RBC ([…], time 28 day) was 796.8 x10_4/ul. The Ret ([…], time 28 day) was 2.3%, the WBC ([…], time 28 day) was 82.2 x10_2/uL and the KIDNEY_L ([…], time 7 day) was 1.1 g. The KIDNEY_R ([…], time 7 day) was 1 g, the KIDNEY_TOTAL ([…], time 7 day) was 2.1 g and the KIDNEY_L ([…], time 14 day) was 1.2 g. It also gave a KIDNEY_R ([…], time 14 day) of 1.2 g, a KIDNEY_TOTAL ([…], time 14 day) of 2.5 g and a KIDNEY_L ([…], time 28 day) of 1.4 g. For the same compound, the KIDNEY_R ([…], time 28 day) was 1.3 g, the KIDNEY_TOTAL ([…], time 28 day) was 2.7 g and the LIVER ([…], time 7 day) was 12.4 g. For the same compound, the LIVER ([…], time 14 day) was 14.7 g, the LIVER ([…], time 28 day) was 15.5 g and the ALP ([…], time 7 day) was 1820.8 IU/L. For the same compound, the ALT ([…], time 7 day) was 48.8 IU/L, the AST ([…], time 7 day) was 67.6 IU/L and the BUN ([…], time 7 day) was 19.4 mg/dL. It also gave a CRE ([…], time 7 day) of 0.2 mg/dL, a Ca ([…], time 7 day) of 11 mg/dL and a Cl ([…], time 7 day) of 105 meq/L. It also gave a DBIL ([…], time 7 day) of 0.02 mg/dL, a GLC ([…], time 7 day) of 205.6 mg/dL and an IP ([…], time 7 day) of 7.1 mg/dL. For the same compound, the K ([…], time 7 day) was 4 meq/L, the LDH ([…], time 7 day) was 80 IU/L and the Na ([…], time 7 day) was 142.4 meq/L. The PL ([…], time 7 day) was 164.2 mg/dL, the RALB ([…], time 7 day) was 2.7 g/dL and the TBIL ([…], time 7 day) was 0.036 mg/dL. The TC ([…], time 7 day) was 80.8 mg/dL, the TG ([…], time 7 day) was 128.4 mg/dL and the TP ([…], time 7 day) was 5.9 g/dL. The gamma-GTP ([…], time 7 day) was 1 IU/L, the ALP ([…], time 14 day) was 1141.6 IU/L and the ALT ([…], time 14 day) was 41.2 IU/L. The AST ([…], time 14 day) was 65.8 IU/L, the BUN ([…], time 14 day) was 16 mg/dL and the CRE ([…], time 14 day) was 0.2 mg/dL. The Ca ([…], time 14 day) was 10.6 mg/dL, the Cl ([…], time 14 day) was 105.2 meq/L and the DBIL ([…], time 14 day) was 0.016 mg/dL. The GLC ([…], time 14 day) was 202.4 mg/dL, the IP ([…], time 14 day) was 7.1 mg/dL and the K ([…], time 14 day) was 3.8 meq/L. It also gave an LDH ([…], time 14 day) of 78.8 IU/L, a Na ([…], time 14 day) of 143.4 meq/L and a PL ([…], time 14 day) of 139.6 mg/dL. It also gave an RALB ([…], time 14 day) of 2.8 g/dL, a TBIL ([…], time 14 day) of 0.03 mg/dL and a TC ([…], time 14 day) of 69 mg/dL. For the same compound, the TG ([…], time 14 day) was 117.4 mg/dL, the TP ([…], time 14 day) was 6 g/dL and the gamma-GTP ([…], time 14 day) was 1.2 IU/L. The ALP ([…], time 28 day) was 955.2 IU/L, the ALT ([…], time 28 day) was 36.2 IU/L and the AST ([…], time 28 day) was 59.4 IU/L. It also gave a BUN ([…], time 28 day) of 14 mg/dL, a CRE ([…], time 28 day) of 0.2 mg/dL and a Ca ([…], time 28 day) of 10.7 mg/dL. It also gave a Cl ([…], time 28 day) of 106.6 meq/L, a DBIL ([…], time 28 day) of 0.018 mg/dL and a GLC ([…], time 28 day) of 199 mg/dL. It also gave an IP ([…], time 28 day) of 6.5 mg/dL, a K ([…], time 28 day) of 3.5 meq/L and an LDH ([…], time 28 day) of 48.8 IU/L. For the same compound, the Na ([…], time 28 day) was 144.2 meq/L, the PL ([…], time 28 day) was 139.6 mg/dL and the RALB ([…], time 28 day) was 2.8 g/dL. The TBIL ([…], time 28 day) was 0.064 mg/dL, the TC ([…], time 28 day) was 75.8 mg/dL and the TG ([…], time 28 day) was 90.4 mg/dL. The TP ([…], time 28 day) was 6.4 g/dL.
